Here are results for three molecules from patent EP2966448B1, “METHOD FOR THE PREDICTION OR PROGNOSIS OF THE RESPONSE OF A HUMAN SUBJECT SUFFERING FROM CANCER TO TREATMENT WITH AN ANTAGONIST OF THE NK1 RECEPTOR” (priority 2013, dated 2014).

What is called inhibition is how much of the control response was suppressed.

Like-named read-outs stand apart in the source and are kept apart here.

One test concerns Glioma (astrocytoma). The test is described as follows: Inhibition of primary tumor cell cultures vs Kras mutation (Example 2). Type of test: cell-based, human. The conditions noted are these: 100 micromolar; for Percentage of inhibition of cell cultures: Glioma (astrocytoma); for inhibition at 100 µM: Homo sapiens, read-out: Percentage of inhibition of cell cultures.
The subject of test [1] is Renal cell carcinoma (clear cell renal cell carcinoma). Described as above. Type of test: cell-based, human. The conditions noted are these: 100 micromolar; for Percentage of inhibition of cell cultures: Renal cell carcinoma (clear cell renal cell carcinoma); for inhibition at 100 µM: Homo sapiens, read-out: Percentage of inhibition of cell cultures.
Experimental: (§1) Cell cultures. To obtain tumor cells from human primary tumors we used the method described in De Bari et al. (De Bari et al. 2001). Briefly, small pieces of the tumors were digested into a hyaluronidase solution (Sigma-Aldrich, USA) at a concentration of 1 mg/ml during 15 minutes at 37°C, and then they were treated with 6 mg/ml of collagenase type IV (Invitrogen) during 2 hours at 37°C. Consecutively, cells were washed, and resuspended in the DMEM culture medium with high concentration of glucose (Dulbecco's Modified Eagle's Medium, Invitrogen) supplemented with 1% of antibiotics-antimycotics (Invitrogen) and with 1% of sodium pyruvate (Invitrogen), and the cells were seeded in culture slides at a concentration of 10.000 cells per square centimeter. When cells reached confluence, the adherent cells were separated using sterile trypsin at 0,5% (Invitrogen) and they were used among passages 3 and 9. For the assays shown next, tumor cells were seeded on slides at a concentration of 25.000 cells per well. A total of 6 wells containing the tumor cells were used as survival control. […] All the cultures were kept during 48 hours and later on recollected for their analysis.
(§2) In each case the presence or not of mutations in K-ras gene was determined.
(§3) To determine the existence of mutations in the K-ras gene DNA from cancer tumor cells was extracted from samples obtained from the different cancer tumor cells, using DNA extraction kits from Takara (Madison, WI, US) or Ambion (Huntingdon, Cambridgeshire, United Kingdom), following the manufacturer's instructions, and as it has been previously published (Di Fiore F, et al. 2007). Consecutively it was analyzed by sequencing the exon 2 of the KRAS gene, , by means of PCR amplification from previously extracted cancer tumor DNA, using the following sense primer (SEQ ID NO. 15): 5'-[sequence]-3' and anti-sense primer (SEQ ID NO. 16): 5'-[sequence]-3'. After the purification using the Qiagen extraction kit, the PCR products were sequenced using the Big Dye Terminator Kit V3.1 (Applied Biosystems, Foster City, CA, U.S.) and an ABI Prism 377 or 3100 DNA sequencer (Applied Biosystems). The presence of a heterozygous mutation in the KRAS gene in cancer tumor cells of the cultures was defined as the appearance of a mutant peak of a height of at least a third of the wild type. All the sequence analysis were executed at least twice in two independent PCR.
(§4) The antibody against NK1 receptor (Table 16) was used at 1/50 concentration. The percentages of inhibition are expressed in percentage of variation in relation to control ± standard deviation.
Test [2] relates to Carcinoma of the uterine cervix (Squamous cell carcinoma). The description is as above. Type of test: cell-based, human. The conditions noted are these: 100 micromolar; for Percentage of inhibition of cell cultures: Carcinoma of the uterine cervix (Squamous cell carcinoma); for inhibition at 100 µM: Homo sapiens, read-out: Percentage of inhibition of cell cultures.
Experimental: as §1, §2, §3, §4
A further test deals with Ovarian carcinoma. The test is described as follows: Inhibition of primary tumor cell cultures (48 hours) vs NK1 receptor immunostaining (Example 1). Type of test: cell-based. The conditions noted are these: Homo sapiens, 1 micromolar, read-out: Percentage of inhibition of cell cultures.
The subject of the next test is Melanoma. Described as above. To be noted: Homo sapiens, 1 micromolar, read-out: Percentage of inhibition of cell cultures. Type of test: cell-based.
A further test relates to Leukemia T. The description is as above. Type of test: cell-based. To be noted: Homo sapiens, 1 micromolar, read-out: Percentage of inhibition of cell cultures.
In test [3] the test system is Colon carcinoma (Adenocarcinoma). The test is described as follows: Inhibition of primary tumor cell cultures vs Kras mutation (Example 2). Type of test: cell-based, human. To be noted: 100 micromolar; for Percentage of inhibition of cell cultures: Colon carcinoma (Adenocarcinoma); for inhibition at 100 µM: Homo sapiens, read-out: Percentage of inhibition of cell cultures.
Experimental: as §1, §2, §3, §4

Test [4] has as its system Urinary bladder carcinoma. Kind of test: Inhibition of primary tumor cell cultures (48 hours) vs NK1 receptor immunostaining (Example 1). Type of test: cell-based. To be noted: Homo sapiens, 1 micromolar, read-out: Percentage of inhibition of cell cultures.
Experimental: as §1
(§5) Immunohistochemistry techniques. The presence of NK1 receptors was also analyzed using immunohistochemistry techniques. Briefly, a sample of each of the cultures of the cell lines used in the present invention, was centrifuged (5 minutes at 1.500 rpm) and the pellet obtained was dehydrated using increasing concentrations of ethanol and, finally, xylol. Then, said dehydrated samples were embedded in paraffin, creating a block of cells. Such paraffin blocks were cut with a microtome at 5 microns thickness, and were placed on microscope slides adequate to perform immunohistochemistry techniques. Consecutively, they were de-paraffinized by immersing them in xylol, to be finally hydrated using a solution containing decreasing concentrations of ethanol, and finally submerged them into water. […] After this, the samples were left to cool down at room temperature for 10 minutes. The endogenous peroxidase activity was blocked with 3% peroxide of hydrogen for 30 minutes at room temperature. After washing the samples with 0.05 M of Tris buffer, they were incubated with 10% non-immune pork serum at for 30 minutes at room temperature. To analyze the expression of NK1 receptors, the cellular samples were incubated in the presence of anti-NK1 antibodies (S8305, Sigma-Aldrich) diluted 1:1000, overnight at 4°C. Afterwards, the samples were washed in Tris buffer 0.05 M at room temperature. The next step was the addition of Envision System-HRP (Dako) reagents for 30 minutes at room temperature. Then, the samples were washed again in Tris buffer 0.05 M and the immunoreactivity was visualized through light microscopy with a chromogenic solution containing 3,3'-Diaminobenzidine (DAB+; Dako, USA). To differentiate the cell nuclei, they were slightly stained with hematoxylin. As negative control, it was used samples not incubated with the primary antibody anti-NK1, which was replaced by non-immune serum. All the samples were evaluated.
(§6) To value the immunostaining in each of the cases six cuts were performed to be analyzed by the immunohistochemistry technique. In each of the six cuts, it was counted cells in 20 fields (magnification 400x) using an Olympus microscope (model CX31). In each field it was counted the total number of cells and the number of cells presenting immunostaining, calculating afterwards the percentage of cells which presented immunostaining.
The test system of test [5] is human primary tumor cells. Kind of test: Inhibition of primary tumor cell cultures vs constitutively activated form of NK1 receptor (Example 7; tumor type per table line). Type of test: cell-based.
Experimental: as §1
It was determined the increase or not in proliferation with the exposition to substance P (NK1 receptor agonist), so that for the cell cultures which grew independently from the exposition to substance P, it was considered that they have constitutively activated forms of such receptor, because a mitogenic signal independently from the presence of the agonist was transmitted. It was checked that all tumor cells presented integrity in the MAP Kinases and PI3 Kinases pathways, as wel as in the K-ras gene, and the protein derived from it.
[6] abbreviates: Cases with Kras non-mutated (wild type).
The mark [7] stands for this setting: NK1 receptor immunostaining Group 1 (less than 20% of the cells).
Setting [8] is: NK1 receptor immunostaining Group 2 (20-80% of the cells).
Setting [9] is: NK1 receptor immunostaining Group 3 (more than 80% of the cells).
The mark [10] stands for this setting: NK1 receptor immunostaining Intensity grade 1.
Where [11] appears, read: NK1 receptor immunostaining Intensity grade 2.
Where [12] appears, read: NK1 receptor immunostaining Intensity grade 3.

Experimental for Glioma (astrocytoma): as §1, §2, §3, §4
Experimental for Leukemia T: as §1, §5, §6
Experimental for Melanoma: as §1, §5, §6
Experimental for Ovarian carcinoma: as §1, §5, §6

Turning to `Cc1cc(F)ccc1[C@H]1CNCCN1C(=O)N(C)[C@H](C)c1cc(C(F)(F)F)cc(C(F)(F)F)c1` [Vestipitant], the “Percentage of inhibition of cell cultures” value in the test on Glioma (astrocytoma) (Cases with Kras mutated) was 25±3 percentage; with Glioma (astrocytoma) (setting [6]) it was 97±5 percentage; in [1] (Cases with Kras mutated), 25±5 percentage; in [1] (setting [6]), 95±6 percentage; in test [2] (Cases with Kras mutated) it was 25±5 percentage; in [2] (setting [6]) it was 94±3 percentage. In addition, the “Percentage of inhibition of cell cultures” value turned out to be 33±5 percentage in test [3] (Cases with Kras mutated) and 96±5 percentage in test [3] (setting [6]). The inhibition at 1 µM was 14 ± 4% in the test on Ovarian carcinoma (setting [7]); 47 ± 4% with Ovarian carcinoma (setting [8]); 95 ± 5% in the test on Ovarian carcinoma (setting [9]); 15 ± 3% in the test with Ovarian carcinoma (setting [10]); 46 ± 2% with Ovarian carcinoma (setting [11]); 95 ± 4% in the test with Ovarian carcinoma (setting [12]). The inhibition at 1 µM in the test with Melanoma (setting [7]) turned out to be 16 ± 3%; with Melanoma (setting [8]), 45 ± 4%; with Melanoma (setting [9]), 92 ± 6%; in the test on Melanoma (setting [10]), 15 ± 3%; in the test with Melanoma (setting [11]) it was 48 ± 4%; with Melanoma (setting [12]) it was 92 ± 4%. For the same molecule, the inhibition at 1 µM amounted to 17 ± 4% with Leukemia T (setting [7]); 46 ± 3% with Leukemia T (setting [8]); 94 ± 4% in the test on Leukemia T (setting [9]); 15 ± 3% with Leukemia T (setting [10]); 48 ± 4% in the test on Leukemia T (setting [11]); 94 ± 5% with Leukemia T (setting [12]). The inhibition at 1 µM in [4] (setting [7]) came out at 15 ± 3%; in test [4] (setting [8]), 47 ± 4%; in test [4] (setting [9]) it was 92 ± 5%; in test [4] (setting [10]), 17 ± 3%; in [4] (setting [11]) it was 46 ± 3%; in test [4] (setting [12]), 92 ± 3%.

Turning to `CC(=O)N1CCN([C@H]2CCN(C(=O)N(C)[C@H](C)c3cc(C(F)(F)F)cc(C(F)(F)F)c3)[C@@H](c3ccc(F)cc3C)C2)CC1` [Casopitant], the inhibition at 100 µM with Glioma (astrocytoma) (Cases with Kras mutated) was found to be 26 ± 4%; with Glioma (astrocytoma) (setting [6]), 94 ± 6%; in [1] (Cases with Kras mutated), 27 ± 4%; in [1] (setting [6]) it was 94 ± 3%; in test [2] (Cases with Kras mutated), 27 ± 3%; in test [2] (setting [6]), 93 ± 3%. Further, the inhibition at 100 µM is 32 ± 4% in test [3] (Cases with Kras mutated) and 94 ± 6% in test [3] (setting [6]). Also, the inhibition at 1 µM in the test with Ovarian carcinoma (setting [7]) is 14 ± 3%; in the test with Ovarian carcinoma (setting [8]) it was 49 ± 3%; in the test with Ovarian carcinoma (setting [9]), 94 ± 4%; in the test with Ovarian carcinoma (setting [10]) it was 33 ± 4%; with Ovarian carcinoma (setting [11]) it was 54 ± 4%; with Ovarian carcinoma (setting [12]), 91 ± 3%. Also, the inhibition at 1 µM with Melanoma (setting [7]) is 15 ± 3%; with Melanoma (setting [8]) it was 46 ± 4%; with Melanoma (setting [9]), 93 ± 5%; in the test on Melanoma (setting [10]), 34 ± 3%; with Melanoma (setting [11]), 52 ± 4%; in the test with Melanoma (setting [12]), 93 ± 3%. Further, the inhibition at 1 µM in the test with Leukemia T (setting [7]) worked out at 16 ± 2%; with Leukemia T (setting [8]), 47 ± 5%; in the test with Leukemia T (setting [9]), 95 ± 3%; in the test with Leukemia T (setting [10]) it was 34 ± 2%; in the test on Leukemia T (setting [11]), 56 ± 4%; in the test on Leukemia T (setting [12]), 93 ± 3%. Besides, the inhibition at 1 µM is 17 ± 3% in [4] (setting [7]); 45 ± 3% in test [4] (setting [8]); 94 ± 6% in [4] (setting [9]); 34 ± 4% in test [4] (setting [10]); 56 ± 4% in test [4] (setting [11]); 93 ± 4% in test [4] (setting [12]).

Take `C[C@@H](O[C@H]1OCCN(Cc2n[nH]c(=O)[nH]2)[C@H]1c1ccc(F)cc1)c1cc(C(F)(F)F)cc(C(F)(F)F)c1` [Aprepitant]: the “Percentage of inhibition of cell cultures” value is 74±6% in test [5] (Non Hodgkin Lymphoma B (diffuse B cell lymphoma), Group I (constitutively activated form of NK1 receptor)); 75±6% in [5] (Non Hodgkin Lymphoma T (diffuse T cell lymphoma), Group I (constitutively activated form of NK1 receptor)); 96±4% in [5] (Non Hodgkin Lymphoma T (diffuse T cell lymphoma), Group II (normal form of the receptor)). Also, the “inhibition of tumor cell growth” value in test [5] (group with little proliferating response when exposed to substance P (constitutively activated form of NK1 receptor), compared) was “higher inhibition”.
